Assay [1] has as its target T1, 5-lipoxygenase (Cavia porcellus, UniProt A0A286X958).
T1 construct: A-23187-stimulated guinea pig polymorphonuclear leukocytes; endogenous in cells; host or cells: guinea pig polymorphonuclear leukocytes
T1 sequence (A0A286X958 1-674): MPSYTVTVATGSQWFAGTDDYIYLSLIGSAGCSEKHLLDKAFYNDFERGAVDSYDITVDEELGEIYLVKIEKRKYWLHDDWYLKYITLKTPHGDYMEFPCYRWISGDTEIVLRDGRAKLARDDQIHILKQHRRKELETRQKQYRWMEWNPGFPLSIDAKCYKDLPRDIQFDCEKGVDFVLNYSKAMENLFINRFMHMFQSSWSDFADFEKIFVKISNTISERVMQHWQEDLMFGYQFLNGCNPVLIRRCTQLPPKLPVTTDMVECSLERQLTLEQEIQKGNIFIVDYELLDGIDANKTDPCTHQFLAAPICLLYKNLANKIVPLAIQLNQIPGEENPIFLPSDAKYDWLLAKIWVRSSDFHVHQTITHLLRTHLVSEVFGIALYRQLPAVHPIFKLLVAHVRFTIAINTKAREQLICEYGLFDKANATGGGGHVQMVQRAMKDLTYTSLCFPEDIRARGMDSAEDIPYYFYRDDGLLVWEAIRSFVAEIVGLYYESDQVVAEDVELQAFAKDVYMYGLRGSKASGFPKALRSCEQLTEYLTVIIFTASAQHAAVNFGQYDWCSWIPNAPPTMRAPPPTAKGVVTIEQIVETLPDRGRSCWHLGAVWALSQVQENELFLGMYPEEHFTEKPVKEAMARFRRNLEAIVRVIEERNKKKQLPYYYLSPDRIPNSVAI
The assay is described as follows: inhibition of 5-HETE and LTB4 synthesis in A-23187-stimulated guinea pig polymorphonuclear leukocytes. It counts as cell-based. The conditions noted are these: also printed as 1×10^-7 M, read-out: IC50, inhibition of the formation of 5-HETE and leukotriene B4 (LTB4). On the procedure: 5-Lipoxygenase inhibition is determined e.g. by measuring the percent inhibition of the synthesis of 5-HETE [(5S)-5-hydroxy-6,8,11,14-eicosa-tetraenoic acid] and leukotriene B4 (LTB4, 5,12-dihydroxy-6,8,10,14-eicosatetraenoic acid) in A-23187-stimulated guinea pig polymorphonuclear leukocytes, essentially according to radiometric thin-layer chromatographic assays described by Walker and Dawson (J. Pharm. Pharmacol. 31: 778, 1979) and Jakschik and Lee (Nature 287: 51, 1980) used to measure the formation of 5-HETE and LTB4 -like products from ^14 C-arachidonic acid. IC50 values are determined graphically as the concentration of test compound at which the synthesis of 5-HETE and LTB4 -like products is reduced to 50% of their respective control values.
(§1) Illustrative of the invention, the compound of example 1a, (E)-3-(1-cycloheptyl-1H-pyrrol-3-yl)-N-hydroxy-N-methyl-2-propenamide, inhibits the formation of 5-HETE [(5S)-5-hydroxy-6,8,11,14-eicosatetraenoic acid] and leukotriene B4 (LTB4, 5,12-dihydroxy-6,8,10,14-eicosatetraenoic acid) in A-23187-stimulated guinea pig polymorphonuclear leukocytes, e.g. at an IC50 of about 0.1 micromolar (1×10^-7 M).

Assay [2] relates to rat pleurisy model of inflammation. The assay can be described thus: carrageenin-induced pleurisy model, exudate volume. It counts as in vivo. The conditions noted are these: 10 mg/kg p.o. for two days at -1, 6, 24 and 45 hours relative to carrageenin injection, 48 hours after injection.
In assay [3] the test system is 5-lipoxygenase. The assay can be described thus: ex vivo inhibition of A-23187-stimulated LTB4 formation in whole blood after oral administration. The note with it: dose of about 3 mg/kg p.o. to the dog. The procedure:
Furthermore, the inhibition of 5-lipoxygenase is determined after oral or i.v. administration to rats or dogs by measuring ex vivo in whole blood the decrease of A-23187-stimulated LTB4 formation as compared to non-treated control animals.
as §1

pIC50: −log10 of the molar value.

In the case of `CN(O)C(=O)/C=C/c1ccn(C2CCCCCC2)c1` [example 1a, (E)-3-(1-cycloheptyl-1H-pyrrol-3-yl)-N-hydroxy-N-methyl-2-propenamide], the pIC50 (usually the IC50 on a negative log10 scale, so that one unit is a factor of ten) at 5-lipoxygenase [1] is around 7.00. Also, the “inhibition of exudate volume” value in assay [2] is given as “causes inhibition of exudate volume”. Also, the “inhibition of LTB4 formation as determined ex vivo” value in the assay with 5-lipoxygenase [3] stood at 50%.

(Values after patent US4960787A, “Certain pyrrolyl-substituted hydroxamic acid derivatives” (Ciba-Geigy Corporation, priority 1989, dated 1990).)
